Compound: C=C(c1ccc(C(=O)O)cc1)c1cc2c(cc1C)C(C)(C)CCC2(C)C [Bexarotene]
Assay: relative viability (nuclei count vs DMSO), 5 days (fraction); higher = more cells survive
Summary of the method: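 On vehicle-anchored 1536-well plates, lung cancer cell lines held overnight at 37 °C were pinned with five library-drug doses (not always all listed) spaced by √10. With no medium change over 5 days, they were then fixed, permeabilised and Hoechst-stained in one step and imaged at 4×. MetaXpress counted nuclei, and viability is the median across plates of treated-well over vehicle-well nuclei. Acceptance needed control CV below 25% and at least one doubling.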

Cell Line	relative viability (0.08 µM)	relative viability (0.253 µM)	relative viability (0.8 µM)	relative viability (2.53 µM)	relative viability (8 µM)
NCI-H441	1.31	1.1	1.04	0.969	1
NCI-H1793	1.12	0.93	0.754	0.838	0.881
NCI-H23	1.17	0.927	0.952	0.82	0.899
HARA	1.04	1.03	0.838	0.925	0.875
NCI-H1792	0.904	0.886	0.672	0.632	0.769
NCI-H1703	0.944	0.968	0.759	0.647	0.701
NCI-H1648	1.02	0.971	0.645	0.735	0.708
CAL-12T	0.989	0.992	0.981	0.844	0.917
NCI-H727	0.961	0.978	0.916	1.05	1.04
NCI-H2085	0.981	0.979	0.903	0.869	0.901
NCI-H1395	1.06	0.905	1.01	0.75	0.957
SW 900	0.874	0.948	0.726	0.684	0.888
NCI-H460	1.04	0.976	0.986	0.944	0.946
A549	1.07	0.99	0.964	0.933	0.878
IA-LM	0.876	0.906	0.806	0.774	0.831
EKVX	0.974	0.98	0.97	1.02	0.891
ChaGo-K-1	1.09	1.01	1	1.03	0.989
NCI-H1755	1.07	1.15	1.06	0.998	0.982
NCI-H2228	1.02	1.24	1.03	0.819	0.947
NCI-H2087	1.08	1.12	1.02	1.03	0.892
LU99A	1.33	1.07	0.977	1.06	1.09
NCI-H1355	1.11	1.04	0.945	0.979	0.96
NCI-H520	1.06	0.869	0.865	0.852	0.972
NCI-H661	1.04	0.998	0.934	0.922	0.91
NCI-H650	1.19	1.03	0.986	0.822	0.919
NCI-H647	1.03	1.08	0.896	0.924	0.874

Cell Line	relative viability (0.08 µM)	relative viability (0.253 µM)	relative viability (0.8 µM)	relative viability (2.53 µM)	relative viability (8 µM)
201T	1.02	0.989	0.971	0.942	0.93
NCI-H838	1.04	1.03	1.04	1.04	0.996
SW 1573	1.04	0.976	0.921	0.84	0.771
PC-14	1.05	1.17	0.973	0.92	0.896
LK-2	1.32	0.942	1.04	0.977	0.998
COR-L23	1.16	0.979	0.936	0.874	0.951
NCI-H1944	1.29	1.07	1.07	1.25	1.03
HCC-78	1.09	0.889	0.844	0.849	1.08
NCI-H2405	1.12	1.01	0.857	0.97	0.986
SK-LU-1	1.2	1.13		1.04	0.936
EMC-BAC-2	1.15	1.02	1		1.02
NCI-H1650	1.01	0.897	0.912	0.785	0.844
NCI-H596	0.956	0.848	0.957	0.994	0.919
LCLC-97TM1	1.03	0.969	1.02	0.829	0.939
H3255	1.07	0.949	1.05	0.988	1.01
LXF-289	1.19	1.18	1.16	1.17	1.29
UMC-11	0.976	0.952	0.917	0.917	0.963
LC-2-ad	0.989	1.08	1.06	1	0.98
SK-MES-1	1.16	1.12	1	0.98	0.909
A-427	1.06	0.963	0.954	0.895	0.893
NCI-H322M	1.08	1.03	0.937	0.988	1.01
HCC-366	1.06	0.998	1.02	0.999	1.02
NCI-H1975	1.05	1.04	1.09	1.01	1.2
NCI-H1437	1.04	1.01	1.03	0.996	1.01
NCI-H2009	1.21	1.22	1.11	1.08	1.07
NCI-H1651	1.08	0.987	1.01	1.02	1

Cell Line	relative viability (0.08 µM)	relative viability (0.253 µM)	relative viability (0.8 µM)	relative viability (2.53 µM)	relative viability (8 µM)
LCLC-103H	1.09	1.03	0.849	0.983	1.05
NCI-H1666	1.03	0.924	0.913	0.98	0.857
NCI-H1734	1.04	0.966	0.989	0.881	0.879
EPLC-272H	1	0.93	0.802	0.881	0.939
NCI-H2023	1.05	0.958	1.01	0.921	0.771
BEN	1.01	0.822	0.868	0.752	0.87
COR-L 105	1.13	1.02	0.963	0.987	0.892
ABC-1	1	0.904	0.892	0.851	0.993
HCC-15	1.1	1.11	1.02	0.978	1.05
NCI-H2170	0.96	0.969	0.942	0.909	0.831
PC-3 [JPC-3]	1.14	0.98	0.918	0.964	0.932
NCI-H1993	1.09	0.919	0.788	0.862	0.832
NCI-H358	1.04	1.14	0.871	0.974	1.05
NCI-H1563	1.03	0.911	0.868	0.938	0.987
EBC-1	0.901	1.03	0.971	1.02	1.08
NCI-H1915	1.13	1.05	0.999	0.951	0.904
RERF-LC-KJ	0.96	0.969	0.909	0.87	0.847
LOU-NH91	1.04	0.957	0.952	0.869	0.926
NCI-H2347	1.18	1.04	0.809	0.981	1.07
NCI-H2126	1.02	1.01	0.954	0.991	0.971
HCC-827	1.09	0.993	0.961	1.05	0.937
Calu-6	1.04	1.03	0.955	1.02	1.06
NCI-H3122	1.05	1.11	1.03	1.04	1.05
HOP-62	1.13	1.11	1.15	1.04	1
HCC-44	0.981	1.02	0.889	0.976	0.932
